Assay results reported in ChEMBL document CHEMBL1152036, “Acyclic nucleoside triphosphate analogs as terminators in biocatalytic DNA replication” (Bioorg Med Chem Lett, 1997).

Tests used:
Nucleic Acid [1] = assay: The compound was evaluated as substrate for DNA replicating enzyme, Bst DNA polymerase; No incorporation; assay type: nucleic-acid assay
Nucleic Acid [2] = assay: The compound was evaluated as substrate for DNA replicating enzyme, AmpliTaq FS DNA polymerase at a concentration of 1 mM; Termination; assay type: nucleic-acid assay
[3] = system: HIV-1 reverse transcriptase (Human immunodeficiency virus 1); assay: The compound was evaluated as substrate for DNA replicating enzyme, HIV-1 RT at a concentration of 1 mM; Termination
Nucleic Acid [4] = assay: The compound was evaluated as substrate for DNA replicating enzyme, AmpliTaq DNA polymerase; No incorporation; assay type: nucleic-acid assay
Nucleic Acid [5] = assay: The compound was evaluated as substrate for DNA replicating enzyme, rTth DNA polymerase; No incorporation; assay type: nucleic-acid assay
[6] = target: DNA polymerase I, thermostable (Thermus aquaticus) (UniProt P19821); assay: The compound was evaluated as substrate for DNA replicating enzyme, Taq DNA polymerase at a concentration of 1 mM; Termination
DNA polymerase I, thermostable (Thermus aquaticus), sequence (P19821 whole entry): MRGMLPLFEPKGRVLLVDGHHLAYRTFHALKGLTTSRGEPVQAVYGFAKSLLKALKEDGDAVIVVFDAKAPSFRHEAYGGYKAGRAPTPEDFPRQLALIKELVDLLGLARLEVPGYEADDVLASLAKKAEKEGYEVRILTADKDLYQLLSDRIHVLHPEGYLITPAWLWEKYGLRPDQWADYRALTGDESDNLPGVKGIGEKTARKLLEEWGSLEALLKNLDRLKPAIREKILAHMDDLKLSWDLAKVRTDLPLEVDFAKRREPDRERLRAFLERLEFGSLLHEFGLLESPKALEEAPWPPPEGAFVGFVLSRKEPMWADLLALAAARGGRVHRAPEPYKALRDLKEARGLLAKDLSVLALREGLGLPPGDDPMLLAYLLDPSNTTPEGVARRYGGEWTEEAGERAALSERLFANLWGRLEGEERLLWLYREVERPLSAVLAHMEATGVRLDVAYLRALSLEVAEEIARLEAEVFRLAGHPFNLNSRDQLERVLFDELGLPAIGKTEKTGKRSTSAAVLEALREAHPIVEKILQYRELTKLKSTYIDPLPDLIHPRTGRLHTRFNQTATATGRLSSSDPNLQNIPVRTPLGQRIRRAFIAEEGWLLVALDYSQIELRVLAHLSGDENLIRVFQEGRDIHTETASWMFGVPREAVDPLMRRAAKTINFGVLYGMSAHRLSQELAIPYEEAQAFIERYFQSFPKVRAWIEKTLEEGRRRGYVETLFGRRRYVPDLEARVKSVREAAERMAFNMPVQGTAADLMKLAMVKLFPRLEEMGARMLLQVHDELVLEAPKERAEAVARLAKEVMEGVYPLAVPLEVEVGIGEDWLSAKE

[7] = target: DNA polymerase I, thermostable (Thermus aquaticus) (UniProt P19821); assay: The compound was evaluated as substrate for DNA replicating enzyme, Taq DNA polymerase at a concentration of 100 uM; Termination
[8] = system: HIV-1 reverse transcriptase (Human immunodeficiency virus 1); assay: The compound was evaluated as substrate for DNA replicating enzyme, HIV-1 RT at a concentration of 1 mM; Not assayed
Nucleic Acid [9] = assay: The compound was evaluated as substrate for DNA replicating enzyme, AmpliTaq FS DNA polymerase at a concentration of 100 uM; Termination; assay type: nucleic-acid assay

Measured: Activity

Cc1cn(CC(=O)N(C)CCOP(=O)(O)OP(=O)(O)OP(=O)(O)O)c(=O)[nH]c1=O
inactive: Nucleic Acid [1] No incorporation | Nucleic Acid [2] No incorporation | [3] No incorporation | Nucleic Acid [4] No incorporation | Nucleic Acid [5] No incorporation | [6] No incorporation

CN(CCOP(=O)(O)OP(=O)(O)OP(=O)(O)O)C(=O)Cn1cnc2c(N)ncnc21
inactive: Nucleic Acid [1] No incorporation | [7] No incorporation | [8] No incorporation | Nucleic Acid [5] No incorporation | Nucleic Acid [9] No incorporation
